Measurements: PubChem BioAssay AID2060627 (Molecular Pharmacology Branch, DTP, NCI, 2025)
Several values for one entry are separate records, joined by “and”; a condition that tells them apart may be missing. Equal values may be shown once.

Tested on: 156681-154-R-J1-PDC complex spheroid viability
Experiment: Anticancer human tumor 156681-154-R-J1-PDC patient-derived melanoma cell line growth inhibition [CLK]
Settings: for viability, T/C: stronger effect = lower value; active = viability on the fitted dose curve at most 10% of control; inactive = the rest
Outline: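 Patient-derived tumor cells grown as complex spheroids with HUVEC endothelial cells and mesenchymal stem cells, treated with drug combinations. Concentrations descend in half-log steps from near clinical Cmax, or from 10 microM if Cmax unknown.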

[1] = curve of first compound, second compound 0.0316 µM
[2] = curve of first compound, second compound 0.1 µM
[3] = curve of first compound, second compound 0.316 µM
[4] = curve of first compound, second compound 1 µM
[5] = curve of first compound, second compound 3.16 µM
[6] = curve of first compound, second compound 10 µM
[7] = second compound 0.0316 µM, first compound 0.00316 µM
[8] = second compound 0.0316 µM, first compound 0.01 µM
[9] = second compound 0.0316 µM, first compound 0.0316 µM
[10] = second compound 0.0316 µM, first compound 0.1 µM
[11] = second compound 0.1 µM, first compound 0.00316 µM
[12] = second compound 0.1 µM, first compound 0.01 µM
[13] = second compound 0.1 µM, first compound 0.0316 µM
[14] = second compound 0.1 µM, first compound 0.1 µM
[15] = second compound 0.316 µM, first compound 0.00316 µM
[16] = second compound 0.316 µM, first compound 0.01 µM
[17] = second compound 0.316 µM, first compound 0.0316 µM
[18] = second compound 0.316 µM, first compound 0.1 µM
[19] = second compound 1 µM, first compound 0.00316 µM
[20] = second compound 1 µM, first compound 0.01 µM
[21] = second compound 1 µM, first compound 0.0316 µM
[22] = second compound 1 µM, first compound 0.1 µM
[23] = second compound 3.16 µM, first compound 0.00316 µM
[24] = second compound 3.16 µM, first compound 0.01 µM
[25] = second compound 3.16 µM, first compound 0.0316 µM
[26] = second compound 3.16 µM, first compound 0.1 µM
[27] = second compound 10 µM, first compound 0.00316 µM
[28] = second compound 10 µM, first compound 0.01 µM
[29] = second compound 10 µM, first compound 0.0316 µM
[30] = second compound 10 µM, first compound 0.1 µM
[31] = second compound 0.0316 µM, first compound 0.316 µM
[32] = second compound 0.0316 µM, first compound 1 µM
[33] = second compound 0.1 µM, first compound 0.316 µM
[34] = second compound 0.1 µM, first compound 1 µM
[35] = second compound 0.316 µM, first compound 0.316 µM
[36] = second compound 0.316 µM, first compound 1 µM
[37] = second compound 1 µM, first compound 0.316 µM
[38] = second compound 1 µM, first compound 1 µM
[39] = second compound 3.16 µM, first compound 0.316 µM
[40] = second compound 3.16 µM, first compound 1 µM
[41] = second compound 10 µM, first compound 0.316 µM
[42] = second compound 10 µM, first compound 1 µM
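Note: spheroids exposed to the agents for seven days.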
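Throughout, for viability, T/C: 100% = DMSO vehicle control viability.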

Cn1ncnc1[C@H]1c2n[nH]c(=O)c3cc(F)cc(c23)N[C@@H]1c1ccc(F)cc1 + CN1CCN(c2cc(C(=O)Nc3cc4cc(-c5cnn(C)c5)ccc4cn3)ccn2)CC1
inactive: viability, T/C (second compound 0.0316 µM, first compound 0.000316 µM) 88.8% | viability, T/C (second compound 0.0316 µM, first compound 0.001 µM) 91.7% | viability, T/C [7] 90.5% | viability, T/C [8] 94.8% | viability, T/C [9] 81.8% | viability, T/C [10] 68.7% | viability, T/C (second compound 0.1 µM, first compound 0.000316 µM) 89% | viability, T/C (second compound 0.1 µM, first compound 0.001 µM) 84.5% | viability, T/C [11] 75.2% | viability, T/C [12] 85.7% | viability, T/C [13] 66.1% | viability, T/C [14] 59.6% | viability, T/C (second compound 0.316 µM, first compound 0.000316 µM) 18.9% | viability, T/C (second compound 0.316 µM, first compound 0.001 µM) 23.7% | viability, T/C [15] 18.3% | viability, T/C [16] 17.5% | viability, T/C [17] 20.4% | viability, T/C [18] 18.6%
active: viability, T/C (second compound 1 µM, first compound 0.000316 µM) 0.18% | viability, T/C (second compound 1 µM, first compound 0.001 µM) 2.71% | viability, T/C [19] 0.14% | viability, T/C [20] 0.17% | viability, T/C [21] 2.08% | viability, T/C [22] 0.69% | viability, T/C (second compound 3.16 µM, first compound 0.000316 µM) 0.14% | viability, T/C (second compound 3.16 µM, first compound 0.001 µM) 1.63% | viability, T/C [23] 1.37% | viability, T/C [24] 0.09% | viability, T/C [25] 1.93% | viability, T/C [26] 0.67% | viability, T/C (second compound 10 µM, first compound 0.000316 µM) 0.13% | viability, T/C (second compound 10 µM, first compound 0.001 µM) 3.21% | viability, T/C [27] 2.34% | viability, T/C [28] 0.36% | viability, T/C [29] 4.58% | viability, T/C [30] 1.43%
< 0.316 nM: IC50 [3] | IC50 [4] | IC50 [5] | IC50 [6]
> 100 nM: IC50 [1] | IC50 [2]

COc1c(OCCCN2CCOCC2)ccc2c3n(c(=NC(=O)c4cnc(N)nc4)nc12)CCN3 + CNC(=O)c1ccc(Nc2nc(OC3CCCC3)c3c(-c4ccc5nc(C)oc5c4)c[nH]c3n2)c(OC)c1
inactive: viability, T/C [7] 74.4% | viability, T/C [8] 64.8% | viability, T/C [9] 33.8% | viability, T/C [10] 17.3% | viability, T/C [11] 50.5% | viability, T/C [12] 56.1% | viability, T/C [13] 33.5% | viability, T/C [14] 18.5% | viability, T/C [15] 61.2% | viability, T/C [16] 44.2% | viability, T/C [17] 27.9% | viability, T/C [18] 13.3% | viability, T/C [19] 50.8% | viability, T/C [20] 37.3% | viability, T/C [21] 18.8% | viability, T/C [23] 47.6% | viability, T/C [24] 35.5% | viability, T/C [25] 19.9% | viability, T/C [27] 49.1% | viability, T/C [28] 30.9% | viability, T/C [29] 10.6%
3.39 nM: IC50 [4]
< 3.16 nM: IC50 [5] | IC50 [6]
7 nM: IC50 [3]
active: viability, T/C [31] 2.95% | viability, T/C [32] 0.22% | viability, T/C [33] 2.54% | viability, T/C [34] 0.32% | viability, T/C [35] 4.38% | viability, T/C [36] 3.9% | viability, T/C [22] 6.93% | viability, T/C [37] 1.63% | viability, T/C [38] 0.35% | viability, T/C [26] 6.45% | viability, T/C [39] 1.23% | viability, T/C [40] 0.32% | viability, T/C [30] 5.7% | viability, T/C [41] 1.04% | viability, T/C [42] 0.31%
10.2 nM: IC50 [2]
17.4 nM: IC50 [1]

Cn1ncnc1[C@H]1c2n[nH]c(=O)c3cc(F)cc(c23)N[C@@H]1c1ccc(F)cc1
> 100 nM: IC50 (curve of compound)
inactive: viability, T/C (compound 0.000316 µM) 87.6% and 89% | viability, T/C (compound 0.001 µM) 88.1% and 94.1% | viability, T/C (compound 0.00316 µM) 91.8% and 78.8% | viability, T/C (compound 0.01 µM) 80.4% and 83% | viability, T/C (compound 0.0316 µM) 60.7% and 65.9% | viability, T/C (compound 0.1 µM) 57% and 63.1%

COC1C=CCC(C)C(C)S(=O)(=O)NC(=O)c2ccc3c(c2)N(CC2CCC21)CC1(CCCc2cc(Cl)ccc21)CO3 (stereo not drawn) + CNC(=O)c1ccc(Nc2nc(OC3CCCC3)c3c(-c4ccc5nc(C)oc5c4)c[nH]c3n2)c(OC)c1
88.5 nM: IC50 [3]
1070 nM: IC50 [1]
327 nM: IC50 [2]
inactive: viability, T/C [9] 96.3% | viability, T/C [10] 93.1% | viability, T/C [31] 84.3% | viability, T/C [32] 54% | viability, T/C (second compound 0.0316 µM, first compound 3.16 µM) 9.3% | viability, T/C [13] 60.2% | viability, T/C [14] 57% | viability, T/C [33] 48.8% | viability, T/C [34] 36.5% | viability, T/C (second compound 0.1 µM, first compound 3.16 µM) 12.5% | viability, T/C [17] 55.6% | viability, T/C [18] 49.5% | viability, T/C [35] 35.6% | viability, T/C [36] 20.6% | viability, T/C [21] 43.4% | viability, T/C [22] 42.6% | viability, T/C [37] 24.4% | viability, T/C [38] 19.5% | viability, T/C [25] 35.7% | viability, T/C [26] 39% | viability, T/C [39] 15.3% | viability, T/C [40] 15.1% | viability, T/C [29] 30.4% | viability, T/C [30] 32.5% | viability, T/C [41] 16.2% | viability, T/C [42] 13.8%
< 31.6 nM: IC50 [4] | IC50 [5] | IC50 [6]
active: viability, T/C (second compound 0.0316 µM, first compound 10 µM) 1.52% | viability, T/C (second compound 0.1 µM, first compound 10 µM) 1.5% | viability, T/C (second compound 0.316 µM, first compound 3.16 µM) 5.31% | viability, T/C (second compound 0.316 µM, first compound 10 µM) 2.16% | viability, T/C (second compound 1 µM, first compound 3.16 µM) 8.99% | viability, T/C (second compound 1 µM, first compound 10 µM) 2.33% | viability, T/C (second compound 3.16 µM, first compound 3.16 µM) 7.52% | viability, T/C (second compound 3.16 µM, first compound 10 µM) 3.33% | viability, T/C (second compound 10 µM, first compound 3.16 µM) 10.4% | viability, T/C (second compound 10 µM, first compound 10 µM) 5.15%
